From US20220356398A1, “Composition and Method for Improving the Water Transport Characteristics of Hydrophobic Soils” (Ethox Chemicals, LLC, priority 2021, published 2022)

How the values were obtained:
[1] = Compatibility with the soil treatment polymers; assay type: physicochemical
From the text: (§1) Soil treatment polymers are relatively non-polar organic materials with limited water solubility.

[2] = Humic acid removal (detergency)
From the text: as §1

Substance: monophosphate of POE (6) decyl alcohol
- compatibility with the soil treatment polymers [1]: good compatibility
- humic acid removal properties [2]: good humic acid removal properties
